Tests used:
[1] = tested on: diabetic patients; conditions: metformin on its own; cited from earlier work
[2] = tested on: men and women with type 2 diabetes and history or high risk of cardiovascular disease; assay: CANVAS Program: integrated CANVAS and CANVAS-R clinical trials, canagliflozin versus placebo; format: in vivo, human; conditions: for Cardiovascular mortality, hazard ratio (95% confidence interval) / Total (all-cause) mortality, hazard ratio (95% confidence interval): full integrated dataset; for Primary outcome (cardiovascular mortality, nonfatal myocardial infarction, or nonfatal stroke), hazard ratio (95% confidence interval): canagliflozin vs placebo; for Primary outcome (cardiovascular mortality, nonfatal myocardial infarction, or nonfatal stroke), events per 1000 patient-years: integrated database of CANVAS and CANVAS-R
Source text: (§1) Two clinical trials were completed to assess the cardiovascular safety and efficacy of canagliflozin, and how any potential benefits might balance against known risks. The complete protocols for said trials, name CANVAS and CANVAS-R, which protocols are each incorporated in their entirety herein, may be found on www.clinicaltrials.gov (more specifically at the following urls: https://clinicaltrials.gov/ct2/show/NCT01032629?term=canvas&rank=1 and https://clinicaltrials.gov/ct2/show/NCT01989754?term=canvas-r&rank=1, respectively).
(§2) All potential participants completed a 2-week, single-blind, placebo run-in period. Randomization was done centrally through an interactive web response system using a computer-generated randomization schedule prepared by the study sponsor using randomly permuted blocks. Participants in CANVAS were randomly assigned in a 1:1:1 ratio to canagliflozin 300 mg, canagliflozin 100 mg, or matching placebo, and participants in CANVAS-R were randomly assigned in a 1:1 ratio to canagliflozin or matching placebo administered at an initial dose of 100 mg daily with optional up-titration to 300 mg from week 13. Participants and all study staff were masked to individual treatment allocations until the completion of the study. Use of other background therapy for glycemic management and other risk factor control was according to best practice instituted in line with local guidelines including Renin Angiotensin System (RAS) blockade.
(§3) Post-randomization, face-to-face follow-up was scheduled for 3 visits in the first year and at 6-month intervals thereafter, with alternating telephone follow-up between face-to-face assessments. Every follow-up included inquiry about primary and secondary outcome events and serious adverse events. Urinary albumin:creatinine ratio was measured every 26 weeks in CANVAS-R, and at Week 12 and then annually in CANVAS. Serum creatinine measurement with estimation of glomerular filtration rate (eGFR) was performed at least every 26 weeks in both trials. Individuals that prematurely discontinued study treatment continued scheduled follow-up wherever possible, with extensive efforts made to obtain full outcome data for all during the final follow-up window that spanned November 2016 to February 2017.
(§4) The primary outcome was a composite of cardiovascular mortality, nonfatal myocardial infarction, or nonfatal stroke. Secondary outcomes were total mortality; cardiovascular mortality; progression of albuminuria; and the composite of cardiovascular mortality and hospitalization for heart failure. Progression of albuminuria grade was defined as a more then 30% increase in albuminuria and a switch from either normoalbuminuria to microalbuminuria or macroalbuminuria, or from microalbuminuria to macroalbuminuria. In the event that sequential testing was not significant for all then remaining outcomes were scheduled for assessment as exploratory variables in the integrated dataset.
(§5) Evaluation of total hospitalizations was also prespecified.
(§6) All major cardiovascular events, renal outcomes and deaths, plus selected safety outcomes were ratified by Endpoint Adjudication Committees. Intermediate markers of cardiovascular risk and requirement for antihyperglycemic agents were assessed to help understand the observed effects on cardiovascular and renal outcomes. Analyses of safety were of adverse events coded using the latest version of the MedDRA Dictionary. For bone fracture, the primary prespecified analysis was for low-trauma fracture events but secondary analysis of all fractures was also done. Amputations were assessed overall but numbers of cases above and below the ankle were also reported.
(§7) The primary hypothesis test was of noninferiority for the hazard ratio (HR) for the primary outcome at the margin of 1.3 for all canagliflozin versus placebo using the full integrated dataset and the intent to treat approach. […]

[3] = tested on: men and women with type 2 diabetes and history or high risk of cardiovascular disease; assay: CANVAS clinical trial, canagliflozin 300 mg or 100 mg versus placebo; format: in vivo, human
Source text: as §1, §2, §3, §4, §5, §6, §7

[4] = tested on: men and women with type 2 diabetes and history or high risk of cardiovascular disease; assay: CANVAS-R clinical trial, canagliflozin 100 mg with optional up-titration to 300 mg versus placebo; format: in vivo, human
Source text: as §1, §2, §3, §4, §5, §6, §7

[5] = CANVAS Program, vs placebo, listed as canagliflozin
[6] = CANVAS Program, canagliflozin group
[7] = canagliflozin compared to placebo, combined trials n=10,142
[8] = integrated CANVAS and CANVAS-R, canagliflozin group
[9] = integrated database with removal of all study time and mortality events accrued prior to Nov. 20, 2012
[10] = integrated database with removal of all study time and mortality events accrued prior to Nov. 20, 2012, vs placebo
[11] = vs placebo, listed as canagliflozin

## CN(C)C(=N)N=C(N)N [metformin]
[1]
  Average improvement in the HbA1c value: 1.0-1.5%

## Cc1ccc([C@@H]2O[C@H](CO)[C@@H](O)[C@H](O)[C@H]2O)cc1Cc1ccc(-c2ccc(F)cc2)s1 [Canagliflozin, canagliflozin]
[2]; CANVAS Program, vs placebo
  Cardiovascular mortality, hazard ratio (95% confidence interval): 0.87 (0.72-1.06)
  Total (all-cause) mortality, hazard ratio (95% confidence interval): 0.87 (0.74-1.01)
  40% reduction in eGFR, RRT, or renal death, hazard ratio (95% confidence interval): 0.60 (0.47-0.77)
  40% reduction in eGFR, RRT, renal death or macroalbuminuria, hazard ratio (95% confidence interval): 0.57 (0.50-0.66)
  40% reduction in eGFR, RRT, renal or CV death, hazard ratio (95% confidence interval): 0.77 (0.66-0.89)
  Cardiovascular mortality or hospitalization for heart failure, hazard ratio (95% confidence interval): 0.78 (0.67-0.91)
  Hospitalization for heart failure, hazard ratio (95% confidence interval): 0.67 (0.52-0.87)
  Nonfatal myocardial infarction, hazard ratio (95% confidence interval): 0.85 (0.69-1.05)
  Nonfatal stroke, hazard ratio (95% confidence interval): 0.90 (0.71-1.15)
  Progression of albuminuria, hazard ratio (95% confidence interval): 0.73 (0.67-0.79)
  Regression of albuminuria, hazard ratio (95% confidence interval): 1.70 (1.51-1.91)
[2]; [5]
  Cardiovascular mortality, hazard ratio (95% confidence interval): 0.87
  Total (all-cause) mortality, hazard ratio (95% confidence interval): 0.87
  40% reduction in eGFR, RRT, or renal death, hazard ratio (95% confidence interval): 0.60
  Progression of albuminuria, hazard ratio (95% confidence interval): 0.73
[2]; [6]
  40% reduction in eGFR, RRT, or renal death, n/N: 124/5795
  40% reduction in eGFR, RRT, renal death or macroalbuminuria, n/N: 404/5795
  40% reduction in eGFR, RRT, renal or CV death, n/N: 379/5795
  Cardiovascular mortality or hospitalization for heart failure, n/N: 364/5795
  Cardiovascular mortality, n/N: 268/5795
  Cardiovascular mortality, nonfatal myocardial infarction, or nonfatal stroke, n/N: 585/5795
  Hospitalization for heart failure, n/N: 123/5795
  Nonfatal myocardial infarction, n/N: 215/5795
  Nonfatal stroke, n/N: 158/5795
  Progression of albuminuria, n/N: 1341/5196
  Regression of albuminuria, n/N: 885/1679
  Total mortality, n/N: 400/5795
[2]; CANVAS Program
  Primary outcome (cardiovascular mortality, nonfatal myocardial infarction, or nonfatal stroke), hazard ratio (95% confidence interval): 0.86 (0.75-0.97)
[2]; CANVAS Program, listed as canagliflozin
  Primary outcome (cardiovascular mortality, nonfatal myocardial infarction, or nonfatal stroke), hazard ratio (95% confidence interval): 0.86
[2]; canagliflozin compared to placebo group
  Use of other antihyperglycemic agents during follow-up, lower than placebo group: 9.3%
[2]; [7]
  Mean difference in body weight: -1.60 kg
  Mean difference in glycated hemoglobin: −0.58%
  Mean difference in systolic blood pressure: −3.93 mmHg
[2]; [8]
  Composite of sustained 40% reduction in eGFR, end-stage kidney disease or renal death, events per 1000 patient-years: 5.5 /1000 patient-years
  Progression of albuminuria grade, events per 1000 patient-years: 89.4 /1000 patient-years
[2]; canagliflozin group
  Primary outcome (cardiovascular mortality, nonfatal myocardial infarction, or nonfatal stroke), events per 1000 patient-years: 26.93 per 1000 patient-years
[2]; canagliflozin group, listed as canagliflozin
  Primary outcome (cardiovascular mortality, nonfatal myocardial infarction, or nonfatal stroke), events per 1000 patient-years: 26.9 per 1000 patient-years
[2]; [9]
  All-cause mortality, events per 1000 patient-years: 19.05 per 1000 patient-years
  Cardiovascular death, events per 1000 patient-years: 12.82 per 1000 patient-years
[2]; [10]
  All-cause mortality, hazard ratio (95% confidence interval): 0.90 (0.76-1.07)
  Cardiovascular death, hazard ratio (95% confidence interval): 0.96 (0.77-1.18)
[2]; multiple imputation for missing data, vs placebo
  Primary outcome hazard ratio when imputation for missing events was performed: 0.85
[3]; canagliflozin group
  40% reduction in eGFR, RRT, or renal death, n/N: 91/2888
  40% reduction in eGFR, RRT, renal death or macroalbuminuria, n/N: 292/2888
  40% reduction in eGFR, RRT, renal or CV death, n/N: 286/2888
  Cardiovascular mortality or hospitalization for heart failure, n/N: 269/2888
  Cardiovascular mortality, n/N: 207/2888
  Cardiovascular mortality, nonfatal myocardial infarction, or nonfatal stroke, n/N: 425/2888
  Hospitalization for heart failure, n/N: 85/2888
  Nonfatal myocardial infarction, n/N: 152/2888
  Nonfatal stroke, n/N: 106/2888
  Progression of albuminuria, n/N: 895/2655
  Regression of albuminuria, n/N: 434/786
  Total mortality, n/N: 301/2888
[3]; vs placebo
  40% reduction in eGFR, RRT, or renal death, hazard ratio (95% confidence interval): 0.56 (0.41-0.75)
  40% reduction in eGFR, RRT, renal death or macroalbuminuria, hazard ratio (95% confidence interval): 0.64 (0.54-0.76)
  40% reduction in eGFR, RRT, renal or CV death, hazard ratio (95% confidence interval): 0.74 (0.62-0.89)
  Cardiovascular mortality or hospitalization for heart failure, hazard ratio (95% confidence interval): 0.82 (0.67-0.99)
  Cardiovascular mortality, hazard ratio (95% confidence interval): 0.88 (0.70-1.10)
  Cardiovascular mortality, nonfatal myocardial infarction, or nonfatal stroke, hazard ratio (95% confidence interval): 0.88 (0.75-1.03)
  Hospitalization for heart failure, hazard ratio (95% confidence interval): 0.77 (0.55-1.08)
  Nonfatal myocardial infarction, hazard ratio (95% confidence interval): 0.85 (0.65-1.11)
  Nonfatal stroke, hazard ratio (95% confidence interval): 0.97 (0.70-1.35)
  Progression of albuminuria, hazard ratio (95% confidence interval): 0.80 (0.72-0.90)
  Regression of albuminuria, hazard ratio (95% confidence interval): 1.56 (1.30-1.87)
  Total mortality, hazard ratio (95% confidence interval): 0.84 (0.70-1.01)
[3]; [11]
  Progression of albuminuria, hazard ratio (95% confidence interval): 0.80
[4]
  Albumin:creatinine ratio progression, events per 1000 patient-years: 99.80 per 1000 patient-years
  Cardiovascular death or hospitalization for heart failure, events per 1000 patient-years: 15.85 per 1000 patient-years
  Cardiovascular death, events per 1000 patient-years: 10.06 per 1000 patient-years
[4]; canagliflozin group
  40% reduction in eGFR, RRT, or renal death, n/N: 33/2907
  40% reduction in eGFR, RRT, renal death or macroalbuminuria, n/N: 112/2907
  40% reduction in eGFR, RRT, renal or CV death, n/N: 93/2907
  Cardiovascular mortality or hospitalization for heart failure, n/N: 95/2907
  Cardiovascular mortality, n/N: 61/2907
  Cardiovascular mortality, nonfatal myocardial infarction, or nonfatal stroke, n/N: 160/2907
  Hospitalization for heart failure, n/N: 38/2907
  Nonfatal myocardial infarction, n/N: 63/2907
  Nonfatal stroke, n/N: 52/2907
  Progression of albuminuria, n/N: 446/2541
  Regression of albuminuria, n/N: 451/893
  Total mortality, n/N: 99/2907
[4]; vs placebo
  40% reduction in eGFR, RRT, or renal death, hazard ratio (95% confidence interval): 0.71 (0.45-1.11)
  40% reduction in eGFR, RRT, renal death or macroalbuminuria, hazard ratio (95% confidence interval): 0.48 (0.38-0.60)
  40% reduction in eGFR, RRT, renal or CV death, hazard ratio (95% confidence interval): 0.82 (0.62-1.08)
  Cardiovascular mortality or hospitalization for heart failure, hazard ratio (95% confidence interval): 0.72 (0.55-0.94)
  Cardiovascular mortality, hazard ratio (95% confidence interval): 0.86 (0.61-1.22)
  Cardiovascular mortality, nonfatal myocardial infarction, or nonfatal stroke, hazard ratio (95% confidence interval): 0.82 (0.66-1.01)
  Hospitalization for heart failure, hazard ratio (95% confidence interval): 0.56 (0.38-0.83)
  Nonfatal myocardial infarction, hazard ratio (95% confidence interval): 0.85 (0.61-1.19)
  Nonfatal stroke, hazard ratio (95% confidence interval): 0.82 (0.57-1.18)
  Progression of albuminuria, hazard ratio (95% confidence interval): 0.64 (0.57-0.73)
  Regression of albuminuria, hazard ratio (95% confidence interval): 1.80 (1.55-2.09)
  Total mortality, hazard ratio (95% confidence interval): 0.92 (0.70-1.21)
[4]; [11]
  Progression of albuminuria, hazard ratio (95% confidence interval): 0.64
